Assay results as given in patent US5620958A, “Bradykinin antagonists” (Coretech, Inc., priority 1994, dated 1997).
Peptide text beside a SMILES is read from it.

Columns and labels:
NK1 receptor = molecular target: T1, NK1 receptor (Cavia porcellus, UniProt P30547); experiment: guinea pig ileum assay of NK1 receptor activity against substance P; format: cell-based; conditions: Table O; for Kb: read-out: NK1 : GPI pA2 (± s.e.m.) (converted)
T1 construct: a standard guinea pig ileum assay of NK1 receptor activity; from tissue; host or cells: guinea pig ileum
Description: In order to illustrate the potential of blocking two different receptor populations with a single compound a consensus NK1 receptor antagonist (DArg-DPro-Lys-Pro-Gln-Asn-DPhe-Phe-DTrp-Leu-Nle) was synthesized. […] Once the activity of this reference ligand was established, a series of lysine containing monomers formed by the systematic substitution of a lysine residue sequentially through the reference peptide was synthesized.

BK2 receptor = molecular target: T2, BK2 receptor (Rattus norvegicus, UniProt P25023); experiment: cell-based
T2 sequence (P25023 1-396): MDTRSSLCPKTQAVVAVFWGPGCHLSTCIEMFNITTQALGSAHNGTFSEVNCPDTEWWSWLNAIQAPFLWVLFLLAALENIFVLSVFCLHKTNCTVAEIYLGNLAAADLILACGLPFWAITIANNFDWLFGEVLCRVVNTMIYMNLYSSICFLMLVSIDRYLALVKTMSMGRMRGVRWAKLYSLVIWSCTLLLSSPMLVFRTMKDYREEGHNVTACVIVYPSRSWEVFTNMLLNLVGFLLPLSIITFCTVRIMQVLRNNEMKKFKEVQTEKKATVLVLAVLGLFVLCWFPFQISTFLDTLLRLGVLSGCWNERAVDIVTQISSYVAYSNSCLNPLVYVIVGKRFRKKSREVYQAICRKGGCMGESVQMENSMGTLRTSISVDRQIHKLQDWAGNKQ

T1 sequence (P30547 whole entry): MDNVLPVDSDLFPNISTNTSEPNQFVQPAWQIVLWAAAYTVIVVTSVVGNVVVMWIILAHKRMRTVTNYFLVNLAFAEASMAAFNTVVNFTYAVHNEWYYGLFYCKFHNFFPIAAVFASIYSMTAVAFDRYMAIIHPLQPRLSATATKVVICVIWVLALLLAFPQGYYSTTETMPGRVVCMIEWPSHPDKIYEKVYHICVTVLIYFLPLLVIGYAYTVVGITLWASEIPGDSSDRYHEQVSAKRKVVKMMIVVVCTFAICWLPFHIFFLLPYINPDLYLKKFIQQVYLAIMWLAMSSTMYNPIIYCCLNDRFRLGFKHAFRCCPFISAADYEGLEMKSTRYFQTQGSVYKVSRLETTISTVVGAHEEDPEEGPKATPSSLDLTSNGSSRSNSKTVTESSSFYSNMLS

Structure (SMILES)	Kb (NK1 receptor)	Kb (BK2 receptor)	NK1 : GPI pA2 (± s.e.m.) (NK1 receptor)
CCCC[C@H](NC(=O)[C@H](CC(C)C)NC(=O)[C@@H](Cc1c[nH]c2ccccc12)NC(=O)[C@H](Cc1ccccc1)NC(=O)[C@@H](Cc1ccccc1)NC(=O)[C@H](CC(N)=O)NC(=O)[C@H](CCC(N)=O)NC(=O)[C@@H]1CCCN1C(=O)[C@H](CCCCNC(=O)CCCCCN1C(=O)CC(SC[C@H](NC(=O)[C@H](Cc2ccccc2)NC(=O)CNC(=O)[C@@H]2C[C@@H](O)CN2C(=O)[C@@H]2CCCN2C(=O)[C@H](CCCNC(=N)N)NC(=O)[C@H](N)CCCNC(=N)N)C(=O)N[C@H](Cc2ccccc2)C(=O)N[C@@H](CC(C)C)C(=O)N[C@@H](CCCNC(=N)N)C(=O)O)C1=O)NC(=O)[C@H]1CCCN1C(=O)[C@H](N)CCCNC(=N)N)C(N)=O (stereo partly shown) [CP-0392] (HELM PEPTIDE1{[dR].[dP].K.P.Q.N.[dF].F.[dW].L.[Nle].[am]}|PEPTIDE2{[dR].R.P.[Hyp].G.F.C.[dF].L.R}|CHEM1{[O=C1CC([*:2])C(=O)N1CCCCCC(=O)[*:1]]}$PEPTIDE1,CHEM1,3:R3-1:R1|PEPTIDE2,CHEM1,7:R3-1:R2$$$V2.0)	5010 nM	100 nM	
CCCC[C@H](NC(=O)[C@H](CC(C)C)NC(=O)[C@@H](Cc1c[nH]c2ccccc12)NC(=O)[C@H](CCCCNC(=O)CCCCCN1C(=O)CC(SC[C@H](NC(=O)[C@H](Cc2ccccc2)NC(=O)CNC(=O)[C@@H]2C[C@@H](O)CN2C(=O)[C@@H]2CCCN2C(=O)[C@H](CCCNC(=N)N)NC(=O)[C@H](N)CCCNC(=N)N)C(=O)N[C@H](Cc2ccccc2)C(=O)N[C@@H](CC(C)C)C(=O)N[C@@H](CCCNC(=N)N)C(=O)O)C1=O)NC(=O)[C@@H](Cc1ccccc1)NC(=O)[C@H](CC(N)=O)NC(=O)[C@H](CCC(N)=O)NC(=O)[C@@H]1CCCN1C(=O)[C@H](CCCCN)NC(=O)[C@H]1CCCN1C(=O)[C@H](N)CCCNC(=N)N)C(N)=O (stereo partly shown) [CP-0397] (HELM PEPTIDE1{[dR].[dP].K.P.Q.N.[dF].K.[dW].L.[Nle].[am]}|PEPTIDE2{[dR].R.P.[Hyp].G.F.C.[dF].L.R}|CHEM1{[O=C1CC([*:2])C(=O)N1CCCCCC(=O)[*:1]]}$PEPTIDE1,CHEM1,8:R3-1:R1|PEPTIDE2,CHEM1,7:R3-1:R2$$$V2.0)		20 nM	Inactive
CCCC[C@H](NC(=O)[C@H](CC(C)C)NC(=O)[C@@H](Cc1c[nH]c2ccccc12)NC(=O)[C@H](Cc1ccccc1)NC(=O)[C@@H](Cc1ccccc1)NC(=O)[C@H](CC(N)=O)NC(=O)[C@H](CCC(N)=O)NC(=O)[C@H](CCCCNC(=O)CCCCCN1C(=O)CC(SC[C@H](NC(=O)[C@H](Cc2ccccc2)NC(=O)CNC(=O)[C@@H]2C[C@@H](O)CN2C(=O)[C@@H]2CCCN2C(=O)[C@H](CCCNC(=N)N)NC(=O)[C@H](N)CCCNC(=N)N)C(=O)N[C@H](Cc2ccccc2)C(=O)N[C@@H](CC(C)C)C(=O)N[C@@H](CCCNC(=N)N)C(=O)O)C1=O)NC(=O)[C@H](CCCCN)NC(=O)[C@H]1CCCN1C(=O)[C@H](N)CCCNC(=N)N)C(N)=O (stereo partly shown) [CP-0393] (HELM PEPTIDE1{[dR].[dP].K.K.Q.N.[dF].F.[dW].L.[Nle].[am]}|PEPTIDE2{[dR].R.P.[Hyp].G.F.C.[dF].L.R}|CHEM1{[O=C1CC([*:2])C(=O)N1CCCCCC(=O)[*:1]]}$PEPTIDE1,CHEM1,4:R3-1:R1|PEPTIDE2,CHEM1,7:R3-1:R2$$$V2.0)	3160 nM	39.8 nM	
CCCC[C@H](NC(=O)[C@H](CC(C)C)NC(=O)[C@@H](Cc1c[nH]c2ccccc12)NC(=O)[C@H](Cc1ccccc1)NC(=O)[C@H](CCCCNC(=O)CCCCCN1C(=O)CC(SC[C@H](NC(=O)[C@H](Cc2ccccc2)NC(=O)CNC(=O)[C@@H]2C[C@@H](O)CN2C(=O)[C@@H]2CCCN2C(=O)[C@H](CCCNC(=N)N)NC(=O)[C@H](N)CCCNC(=N)N)C(=O)N[C@H](Cc2ccccc2)C(=O)N[C@@H](CC(C)C)C(=O)N[C@@H](CCCNC(=N)N)C(=O)O)C1=O)NC(=O)[C@H](CC(N)=O)NC(=O)[C@H](CCC(N)=O)NC(=O)[C@@H]1CCCN1C(=O)[C@H](CCCCN)NC(=O)[C@H]1CCCN1C(=O)[C@H](N)CCCNC(=N)N)C(N)=O (stereo partly shown) [CP-0396] (HELM PEPTIDE1{[dR].[dP].K.P.Q.N.K.F.[dW].L.[Nle].[am]}|PEPTIDE2{[dR].R.P.[Hyp].G.F.C.[dF].L.R}|CHEM1{[O=C1CC([*:2])C(=O)N1CCCCCC(=O)[*:1]]}$PEPTIDE1,CHEM1,7:R3-1:R1|PEPTIDE2,CHEM1,7:R3-1:R2$$$V2.0)		10 nM	Inactive
CCCC[C@H](NC(=O)[C@H](CC(C)C)NC(=O)[C@@H](Cc1c[nH]c2ccccc12)NC(=O)[C@H](Cc1ccccc1)NC(=O)[C@@H](Cc1ccccc1)NC(=O)[C@H](CC(N)=O)NC(=O)[C@H](CCC(N)=O)NC(=O)[C@@H]1CCCN1C(=O)[C@H](CCCCN)NC(=O)[C@H](CCCCNC(=O)CCCCCN1C(=O)CC(SC[C@H](NC(=O)[C@H](Cc2ccccc2)NC(=O)CNC(=O)[C@@H]2C[C@@H](O)CN2C(=O)[C@@H]2CCCN2C(=O)[C@H](CCCNC(=N)N)NC(=O)[C@H](N)CCCNC(=N)N)C(=O)N[C@H](Cc2ccccc2)C(=O)N[C@@H](CC(C)C)C(=O)N[C@@H](CCCNC(=N)N)C(=O)O)C1=O)NC(=O)[C@H](N)CCCNC(=N)N)C(N)=O (stereo partly shown) [CP-0391] (HELM PEPTIDE1{[dR].K.K.P.Q.N.[dF].F.[dW].L.[Nle].[am]}|PEPTIDE2{[dR].R.P.[Hyp].G.F.C.[dF].L.R}|CHEM1{[O=C1CC([*:2])C(=O)N1CCCCCC(=O)[*:1]]}$PEPTIDE1,CHEM1,2:R3-1:R1|PEPTIDE2,CHEM1,7:R3-1:R2$$$V2.0)	10000 nM	79.4 nM	
CCCC[C@H](NC(=O)[C@H](CC(C)C)NC(=O)[C@@H](Cc1c[nH]c2ccccc12)NC(=O)[C@H](Cc1ccccc1)NC(=O)[C@@H](Cc1ccccc1)NC(=O)[C@H](CC(N)=O)NC(=O)[C@H](CCC(N)=O)NC(=O)[C@@H]1CCCN1C(=O)[C@H](CCCCN)NC(=O)[C@H]1CCCN1C(=O)[C@@H](N)CCCCNC(=O)CCCCCN1C(=O)CC(SC[C@H](NC(=O)[C@H](Cc2ccccc2)NC(=O)CNC(=O)[C@@H]2C[C@@H](O)CN2C(=O)[C@@H]2CCCN2C(=O)[C@H](CCCNC(=N)N)NC(=O)[C@H](N)CCCNC(=N)N)C(=O)N[C@H](Cc2ccccc2)C(=O)N[C@@H](CC(C)C)C(=O)N[C@@H](CCCNC(=N)N)C(=O)O)C1=O)C(N)=O (stereo partly shown) [CP-0390] (HELM PEPTIDE1{K.[dP].K.P.Q.N.[dF].F.[dW].L.[Nle].[am]}|PEPTIDE2{[dR].R.P.[Hyp].G.F.C.[dF].L.R}|CHEM1{[O=C1CC([*:2])C(=O)N1CCCCCC(=O)[*:1]]}$PEPTIDE1,CHEM1,1:R3-1:R1|PEPTIDE2,CHEM1,7:R3-1:R2$$$V2.0)	15800 nM	63.1 nM	
CCCC[C@H](NC(=O)[C@H](CC(C)C)NC(=O)[C@@H](Cc1c[nH]c2ccccc12)NC(=O)[C@H](Cc1ccccc1)NC(=O)[C@@H](Cc1ccccc1)NC(=O)[C@H](CCCCNC(=O)CCCCCN1C(=O)CC(SC[C@H](NC(=O)[C@H](Cc2ccccc2)NC(=O)CNC(=O)[C@@H]2C[C@@H](O)CN2C(=O)[C@@H]2CCCN2C(=O)[C@H](CCCNC(=N)N)NC(=O)[C@H](N)CCCNC(=N)N)C(=O)N[C@H](Cc2ccccc2)C(=O)N[C@@H](CC(C)C)C(=O)N[C@@H](CCCNC(=N)N)C(=O)O)C1=O)NC(=O)[C@H](CCC(N)=O)NC(=O)[C@@H]1CCCN1C(=O)[C@H](CCCCN)NC(=O)[C@H]1CCCN1C(=O)[C@H](N)CCCNC(=N)N)C(N)=O (stereo partly shown) [CP-0395] (HELM PEPTIDE1{[dR].[dP].K.P.Q.K.[dF].F.[dW].L.[Nle].[am]}|PEPTIDE2{[dR].R.P.[Hyp].G.F.C.[dF].L.R}|CHEM1{[O=C1CC([*:2])C(=O)N1CCCCCC(=O)[*:1]]}$PEPTIDE1,CHEM1,6:R3-1:R1|PEPTIDE2,CHEM1,7:R3-1:R2$$$V2.0)	501 nM	50.1 nM	
CCCC[C@H](NC(=O)[C@H](CC(C)C)NC(=O)[C@H](CCCCNC(=O)CCCCCN1C(=O)CC(SC[C@H](NC(=O)[C@H](Cc2ccccc2)NC(=O)CNC(=O)[C@@H]2C[C@@H](O)CN2C(=O)[C@@H]2CCCN2C(=O)[C@H](CCCNC(=N)N)NC(=O)[C@H](N)CCCNC(=N)N)C(=O)N[C@H](Cc2ccccc2)C(=O)N[C@@H](CC(C)C)C(=O)N[C@@H](CCCNC(=N)N)C(=O)O)C1=O)NC(=O)[C@H](Cc1ccccc1)NC(=O)[C@@H](Cc1ccccc1)NC(=O)[C@H](CC(N)=O)NC(=O)[C@H](CCC(N)=O)NC(=O)[C@@H]1CCCN1C(=O)[C@H](CCCCN)NC(=O)[C@H]1CCCN1C(=O)[C@H](N)CCCNC(=N)N)C(N)=O (stereo partly shown) [CP-0398] (HELM PEPTIDE1{[dR].[dP].K.P.Q.N.[dF].F.K.L.[Nle].[am]}|PEPTIDE2{[dR].R.P.[Hyp].G.F.C.[dF].L.R}|CHEM1{[O=C1CC([*:2])C(=O)N1CCCCCC(=O)[*:1]]}$PEPTIDE1,CHEM1,9:R3-1:R1|PEPTIDE2,CHEM1,7:R3-1:R2$$$V2.0)		398 nM	Inactive
